# Source: patent US9708370B2, “Azapeptides as CD36 binding compounds” (VALORISATION-RECHERCHE, LIMITED PARTNERSHIP, priority 2007, dated 2017)
# Like-named read-outs stand apart in the source and are kept apart here. Starred links: 1 amine or outer side, 2 acyl side, 3 side chain; linkers in the order of their positions; H or OH if unused. Non-standard residues stand in square brackets, D forms with d. Residues, ends and D or L forms follow the SMILES beside them. azaTyr = O=C(N(Cc1ccc(O)cc1)N[*:1])[*:2]; azaPhe = O=C(N(Cc1ccccc1)N[*:1])[*:2]; X2 = O=C(N(CCc1ccccc1)N[*:1])[*:2]; azaLeu = CC(C)CN(N[*:1])C(=O)[*:2]; X1 = O=C(N(CC1CCCCC1)N[*:1])[*:2]; azaPro = O=C(N1CCCN1[*:1])[*:2]
# What was measured:
# CD36 = CD36 (Rattus norvegicus (Rat), UniProt Q07969); assay: CD36 receptor covalent photolabelling binding assay, competition with [125I]Tyr-Bpa-Ala-hexarelin on rat cardiac membranes
# Experimental: The hearts from Sprague Dawley rats (300 g-325 g) from Charles River, used as a source of cardiac membranes, were prepared as follows: the heart was washed with ice-cold saline, and fatty and connective tissue was removed. The tissue was cut into small pieces with scissors and placed in a Sorvall centrifuge tube containing 5 ml/g of fresh tissue of Buffer A (10 mM NaHCO3, 5 mM NaN3, 10 μM Pefabloc, 0.1 μM Aprotinin, 1 μM Pepstatin A, 1 μM Leupeptin, pH 7.0). The suspension was homogenized with a Polytron at low speed, 3×15 sec. The homogenate was centrifuged at 8 700×g for 20 min and the supernatant was put on ice. The pellet was resuspended and homogenized with a Glass-teflon Potter by 5 strokes. The homogenate was centrifuged at 8 700×g for 10 min and this supernatant was combined with the first supernatant. The supernatant fluid was centrifuged at 35 000×g for 20 min, yielding a second pellet fraction that was suspended thoroughly in a glass homogenizer with a Teflon pestle in 20 ml/g of fresh tissue of Buffer B (20 mM Tris-maleate, 0.6M KCl, pH 6.8). The resulting suspension was centrifuged again at 35 000×g for 60 min. The third pellet fraction was resuspended thoroughly in a glass homogenizer with a Teflon pestle in 20 ml/g of fresh tissue of Buffer C (10 mM Tris/HCl buffer pH 7.4) followed with another centrifugation at 35 000×g for 60 min. The harvested precipitate was then suspended in a small volume (1-2 ml/g of fresh tissue) of 50 mM Tris/HCl buffer pH 7.4) containing 2 mM EGTA. The resulting membrane preparation was frozen at −80° C. Protein concentration was determined with bicinchoninic acid (BCA) method, using BSA as standard.
# The iodination procedure was performed in the darkness. […] The reaction was started by adding 5 ul (3 nmol) of H2O2. The incubation was carried out at 22° C. for 5 min. The addition of H2O2 was repeated twice with 5 min incubation each time. The reaction was stopped with the addition of 1.4 ml of 0.1% TFA. The iodinated peptide was purified on a reverse-phase Vydac C18 column with a 60 min linear gradient (1 ml/min) from 20% to 50% acetonitrile (90%) in 0.1% TFA (10%).
# Nonspecific binding was defined as binding not displaced by 50 μM corresponding peptide. All peptide containing solutions were diluted in Buffer B. Buffer A and B were degassed under vacuum, and used in capped tubes in order to minimize lipid peroxydation. Before the incubation period, all tubes were put under a low flow of nitrogen. All material was kept on ice and the binding assay was performed in darkness. After an incubation period of 60 min at 22° C. […] After centrifugation at 12 000×g for 15 minutes, the pellets were resuspended in 150 μl of sample buffer (62 mM Tris-HCl, pH 6.8, 2% SDS, 10% glycerol, 15% 2-mercapto-ethanol, and 0.05% bromophenol blue), and boiled for 5 min prior to being subjected to electrophoresis. Proteins (200 μg/100 μl) were separated on 7.5% SDS-PAGE (45 V overnight). The gels resulting from SDS/PAGE were fixed, colored in Coomassie Brilliant Blue R-250, dried, exposed to a storage phosphor intensifying screen (Amersham Biosciences), and analysed by using a Typhoon PhosphorImager (Amersham Biosciences) and ImageQuant 5.0 software to establish competition curves. Protein bands were quantified by densitometry. The covalent binding signal of 87 kDa was analyzed by densitometry using Typhoon Phospholmager™ (Typhoon, Amersham Biosciences) and ImageQuant 5.0® software to set competition curves.
# Specific binding activities were defined as the ratio of the density of the protein band to that of a non-specific band. Results are expressed as the percentage of the density of the […] to that of the total binding band.
# human GHS-R1a = human GHS-R1a (Homo sapiens (Human), UniProt Q92847); assay: GHS-R1a binding assay, competition with 125I-ghrelin on membranes of LLC-PK1 cells expressing human GHS-R1a
# Experimental: Rat ghrelin was radio iodinated with Na^125I using the lodo-Beads iodination reagent (Pierce #28665). Briefly, an lodo-bead was incubated with 2 mCi of Na^125I (Amersham) in 100 μL of 50 mM sodium phosphate buffer, pH 7.0 for 5 min at 22° C. The reaction was started by adding 20 nmol of the peptide (1 mM in 0.1 M acetic acid). The tube was incubated for 10 min at 22° C. The iodination was terminated by adding 1 mL of 0.1% TFA. The mono-iodinated peptide was purified by reverse-phase HPLC using a Vydac C18 ([…]) column (30 cm×0.39 cm) in combination with a binary elution system of (A) 0.1% TFA in H2O and (B) 0.1% TFA, 10% H2O, 90% acetonitrile. Fractions of 0.5 mL were collected and analyzed by its radioactive content.
# Cells (1.4×10^6) were plated in 100 mm plates and transfected 24 h later with pCDNA3.1-hGHS-R1a (UMR cDNA Resource Center #GHSR0A0000) following the CaHPO4 precipitation method. Briefly, 40 μg of plasmid DNA was diluted in 500 μL of sterile H2O and added to an equal volume of a 4× CaCl2, pH 7.9 solution (2 mM Tris-HCl, 0.2 mM EDTA, 500 mM CaCl2). The mixture was then added slowly with air bubbles to 1 mL of 2× Hepes-buffered saline, pH 7.1 (50 mM Hepes, 280 mM NaCl, 1.5 mM Na2HPO4). After 30 min at room temperature, 1 mL was distributed evenly over the cells and let overnight. The medium was changed the next morning and the membrane preparation was made two days later.
# Cells were washed twice with PBS and once with ice-cold homogenization buffer (50 mM Tris-HCl, pH 7.3, 5 mM MgCl2, 2.5 mM EDTA, 30 μg/ml bacitracin). Cells were scraped and harvested in 1.5 mL tubes. Cells were then lysed by temperature shock with two freeze/thaw cycles in liquid nitrogen. The tubes were centrifuged at 14000 g for 20 min. Pellets were resuspended in homogenization buffer and stored at −80° C. until used. Total protein concentrations were determined with the BCA protein assay kit (Pierce).
# Competition experiments were performed by incubating 50 μg of LLC-PK1 membranes expressing human GHS-R1a with 15 fmol of ^125I-Ghrelin and increasing concentrations of unlabeled ghrelin or with increasing concentrations of azapeptides derivatives in 0.5 mL of binding buffer. Bound radiolabelled ligand was separated from free by filtration on Whatman GF/C filters pretreated with a 1% polyethylenimine solution. Filters were washed with 2×3 mL of washing buffer (50 mM Tris-HCl, pH 7.3, 10 mM MgCl2, 2.5 mM EDTA, 0.015% Triton X-100). Filters were counted in a LKB gamma counter. Curves were analyzed using Prism software (GraphPad Software Inc).
# [1] = Table 6, read-out: IC50 Binding CD36
# [2] = Table 5, read-out: IC50 Binding GHS-R1a
# [3] = Table 3, rat cardiac membranes, [125I]Tyr-Bpa-Ala-hexarelin as radioligand, read-out: IC50, binding affinity of aza peptide derivatives towards CD36
# [4] = Table 4, LLCPK-1 membranes overexpressing GHS-R1a, radioiodinated (1-28) rat ghrelin as tracer, read-out: EC50 (text: IC50 values from competition curves in GHS-R1a radioreceptor assay)
# human GHS-R1a, sequence (Q92847 whole entry): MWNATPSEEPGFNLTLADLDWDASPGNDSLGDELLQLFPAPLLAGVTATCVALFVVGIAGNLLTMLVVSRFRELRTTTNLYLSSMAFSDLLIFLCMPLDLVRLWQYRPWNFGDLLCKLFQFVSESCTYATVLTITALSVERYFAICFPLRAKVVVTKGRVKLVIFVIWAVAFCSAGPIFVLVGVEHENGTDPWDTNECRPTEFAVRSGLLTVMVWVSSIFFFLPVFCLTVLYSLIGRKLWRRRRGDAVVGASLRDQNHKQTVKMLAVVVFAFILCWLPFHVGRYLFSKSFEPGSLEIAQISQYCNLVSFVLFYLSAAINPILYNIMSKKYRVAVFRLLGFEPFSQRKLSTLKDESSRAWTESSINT
# CD36, sequence (Q07969 whole entry): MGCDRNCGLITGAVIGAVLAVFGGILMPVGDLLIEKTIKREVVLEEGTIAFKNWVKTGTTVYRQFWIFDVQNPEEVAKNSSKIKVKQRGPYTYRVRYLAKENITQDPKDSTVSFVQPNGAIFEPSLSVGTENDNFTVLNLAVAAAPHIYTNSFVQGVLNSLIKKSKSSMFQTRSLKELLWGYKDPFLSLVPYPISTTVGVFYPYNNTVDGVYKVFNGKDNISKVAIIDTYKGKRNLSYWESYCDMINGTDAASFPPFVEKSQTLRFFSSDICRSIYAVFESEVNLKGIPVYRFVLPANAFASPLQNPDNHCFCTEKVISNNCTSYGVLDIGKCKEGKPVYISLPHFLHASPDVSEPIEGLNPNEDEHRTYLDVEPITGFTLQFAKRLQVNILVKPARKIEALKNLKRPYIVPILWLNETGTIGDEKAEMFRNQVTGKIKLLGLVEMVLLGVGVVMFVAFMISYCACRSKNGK
SMILES,IC50 (CD36; [1]),IC50 (human GHS-R1a; [2]),IC50 (CD36; [3]),binding activity/affinity at CD36 in words (CD36; compared with parent peptide GHRP-6 or hexarelin),IC50 (human GHS-R1a; [4]),binding affinity for GHS-R1a receptor in words (human GHS-R1a; compared with GHRP-6)
"C[C@H](NC(=O)[C@@H](Cc1c[nH]c2ccccc12)NC(=O)[C@@H](N)Cc1cnc[nH]1)C(=O)N[C@@H](Cc1c[nH]c2ccccc12)C(=O)N1CCCN1C(=O)N[C@@H](CCCCN)C(N)=O [CP-AP-2, His-D-Trp-Ala-Trp-AzaPro-Lys-NH2] (H-H[dW]AW[azaPro]K-NH2)",> 10 µM,> 10 µM,–,–,–,–
"C[C@H](NC(=O)[C@@H](Cc1c[nH]c2ccccc12)NC(=O)[C@@H](N)Cc1cnc[nH]1)C(=O)N1CCCN1C(=O)N[C@H](Cc1ccccc1)C(=O)N[C@@H](CCCCN)C(N)=O [CP-AP-3, His-D-Trp-Ala-azaPro-D-Phe-Lys-NH2] (H-H[dW]A[azaPro][dF]K-NH2)",> 10 µM,> 10 µM,–,–,–,–
"C[C@H](NC(=O)[C@@H](Cc1c[nH]c2ccccc12)NC(=O)[C@@H](N)Cc1cnc[nH]1)C(=O)NN(Cc1ccccc1)C(=O)N[C@H](Cc1ccccc1)C(=O)N[C@@H](CCCCN)C(N)=O [DBG253-1, His-D-Trp-Ala-azaPhe-D-Phe-Lys-NH2] (H-H[dW]A[azaPhe][dF]K-NH2)",–,–,1.34 µM,maintaining the binding activity,2.77 µM,reducing the binding affinity
"CC(C)CN(NC(=O)[C@H](C)NC(=O)[C@@H](Cc1c[nH]c2ccccc12)NC(=O)[C@@H](N)Cc1cnc[nH]1)C(=O)N[C@H](Cc1ccccc1)C(=O)N[C@@H](CCCCN)C(N)=O [DBG253-2, His-D-Trp-Ala-azaLeu-D-Phe-Lys-NH2] (H-H[dW]A[azaLeu][dF]K-NH2)",–,–,2890 µM,–,19.5 µM,–
"C[C@H](NC(=O)[C@@H](Cc1c[nH]c2ccccc12)NC(=O)[C@@H](N)Cc1cnc[nH]1)C(=O)NN(CC1CCCCC1)C(=O)N[C@H](Cc1ccccc1)C(=O)N[C@@H](CCCCN)C(N)=O [DBG253-4, His-D-Trp-Ala-azaCha-D-Phe-Lys-NH2] (H-H[dW]A[X1][dF]K-NH2)",–,–,2100 µM,–,4.28 µM,–
"C[C@H](NC(=O)[C@@H](Cc1c[nH]c2ccccc12)NC(=O)[C@@H](N)Cc1cnc[nH]1)C(=O)NN(CCc1ccccc1)C(=O)N[C@H](Cc1ccccc1)C(=O)N[C@@H](CCCCN)C(N)=O [DBG253-5, His-D-Trp-Ala-azahomoPhe-D-Phe-Lys-NH2] (H-H[dW]A[X2][dF]K-NH2)",–,–,> 10 µM,–,3.74 µM,–
"C[C@H](NC(=O)[C@@H](Cc1c[nH]c2ccccc12)NC(=O)[C@@H](N)Cc1cnc[nH]1)C(=O)N[C@@H](Cc1ccc(O)cc1)C(=O)N[C@H](Cc1ccccc1)C(=O)N[C@@H](CCCCN)C(N)=O [DBG253-7, His-D-Trp-Ala-Tyr-D-Phe-Lys-NH2] (H-H[dW]AY[dF]K-NH2)",–,–,13.2 µM,–,0.771 µM,–
"C[C@H](NC(=O)[C@@H](Cc1c[nH]c2ccccc12)NC(=O)[C@@H](N)Cc1cnc[nH]1)C(=O)N[C@H](Cc1ccc(O)cc1)C(=O)N[C@H](Cc1ccccc1)C(=O)N[C@@H](CCCCN)C(N)=O [DBG253-8, His-D-Trp-Ala-D-Tyr-D-Phe-Lys-NH2] (H-H[dW]A[dY][dF]K-NH2)",–,–,12 µM,–,3.25 µM,–
"C[C@H](NC(=O)N(Cc1ccccc1)NC(=O)[C@@H](N)Cc1cnc[nH]1)C(=O)N[C@@H](Cc1c[nH]c2ccccc12)C(=O)N[C@H](Cc1ccccc1)C(=O)N[C@@H](CCCCN)C(N)=O [DBG253-9, His-azaPhe-Ala-Trp-D-Phe-Lys-NH2] (H-H[azaPhe]AW[dF]K-NH2)",–,–,72.4 µM,–,16.1 µM,–
"C[C@H](NC(=O)N(CC1CCCCC1)NC(=O)[C@@H](N)Cc1cnc[nH]1)C(=O)N[C@@H](Cc1c[nH]c2ccccc12)C(=O)N[C@H](Cc1ccccc1)C(=O)N[C@@H](CCCCN)C(N)=O [DBG253-13, His-azaCha-Ala-Trp-D-Phe- Lys-NH2] (H-H[X1]AW[dF]K-NH2)",–,–,> 10 µM,–,5.49 µM,–
"C[C@H](NC(=O)[C@@H](Cc1c[nH]c2ccccc12)NC(=O)[C@@H](N)Cc1ccccc1)C(=O)NN(Cc1ccc(O)cc1)C(=O)N[C@H](Cc1ccccc1)C(=O)N[C@@H](CCCCN)C(N)=O [ZS554-F29, Phe-D-Trp-Ala-azaTyr-D-Phe-Lys-NH2] (H-F[dW]A[azaTyr][dF]K-NH2)",11.8 µM,> 10 µM,–,–,–,–
